Reference: patent US20250114338A1, “TETRAHYDRO-PYRIDO[3,4-b]INDOLE ESTROGEN RECEPTOR MODULATORS AND USES THEREOF” (Genentech, Inc., priority 2014, published 2025)

Tested on: ER-alpha MCF7
Assay: ER-alpha MCF7 HCS EC50; stated as measured by in vitro cell proliferation assays of Examples 902 and 903
Type: cell-based
Details: Homo sapiens, MCF7, MCF7 cells; Table 2
In short: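 MCF7 cells seeded 1000-2000 cells/well for 16 h, then treated with nine-point 1:2 DMSO dilution series in quadruplicate at 37 °C, 5% CO2 for 4 days. Viable cells quantified by CellTiter-Glo ATP luminescence; EC50 calculated. Controls: fulvestrant at final 100 nM, DMSO 0.2% v/v.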

| SMILES | EC50 [nM] |
| --- | --- |
| C[C@@H]1Cc2c([nH]c3ccccc23)[C@@H](c2cnc(OC3CN(CCCF)C3)cn2)N1CC(C)(C)F [Example 342, (1S,3R)-2-(2-fluoro-2-methylpropyl)-1-(5-((1-(3-fluoropropyl)azetidin-3-yl)oxy)pyrazin-2-yl)-3-methyl-2,3,4,9-tetrahydro-1H-pyrido[3,4-b]indole] | 0.619 |
| C[C@@H]1Cc2c([nH]c3ccccc23)[C@@H](c2c(F)cc(OC3(C)CN(CCCF)C3)cc2F)N1CC(C)(C)F [Example 343, (1R,3R)-1-(2,6-difluoro-4-((1-(3-fluoropropyl)-3-methylazetidin-3-yl)oxy)phenyl)-2-(2-fluoro-2-methylpropyl)-3-methyl-2,3,4,9-tetrahydro-1H-pyrido[3,4-b]indole] | 0.2 |
| C[C@@H]1Cc2c([nH]c3ccccc23)[C@@H](c2ccc(OC3CN(CCCF)C3)cc2C#N)N1CC(C)(C)F [Example 344, 2-[(1R,3R)-2-(2-fluoro-2-methyl-propyl)-3-methyl-1,3,4,9-tetrahydropyrido[3,4-b]indol-1-yl]-5-[1-(3-fluoropropyl)azetidin-3-yl]oxy-benzonitrile] | 0.347 |
| C[C@@H]1Cc2c([nH]c3ccccc23)[C@@H](c2ccn(CCCN3CC(CF)C3)c(=O)c2)N1CC(C)(C)F [Example 345, 4-((1R,3R)-2-(2-fluoro-2-methylpropyl)-3-methyl-2,3,4,9-tetrahydro-1H-pyrido[3,4-b]indol-1-yl)-1-(3-(3-(fluoromethyl)azetidin-1-yl)propyl)pyridin-2(1H)-one] | 12.3 |
| C[C@@H]1Cc2c([nH]c3ccccc23)[C@@H](c2ccc(C(=O)C3CN(CCCF)C3)cc2)N1CC(C)(C)F [Example 346, [4-[(1R,3R)-2-(2-fluoro-2-methyl-propyl)-3-methyl-1,3,4,9-tetrahydropyrido[3,4-b]indol-1-yl]phenyl]-[1-(3-fluoropropyl)azetidin-3-yl]methanone] | 0.399 |
| C[C@H](CN1[C@H](c2c(F)cc(OCCN3CC(CF)C3)cc2F)c2[nH]c3ccccc3c2C[C@H]1C)C(N)=O [Example 347, (R)-3-((1R,3R)-1-(2,6-difluoro-4-(2-(3-(fluoromethyl)azetidin-1-yl)ethoxy)phenyl)-3-methyl-1,3,4,9-tetrahydro-2H-pyrido[3,4-b]indol-2-yl)-2-methylpropanamide] | 14 |
| C[C@H](CN1[C@H](c2c(F)cc(OC3CN(CCCF)C3)cc2F)c2[nH]c3ccccc3c2C[C@H]1C)C(=O)O [Example 348, (R)-3-((1R,3R)-1-(2,6-difluoro-4-((1-(3-fluoropropyl)azetidin-3-yl)oxy)phenyl)-3-methyl-1,3,4,9-tetrahydro-2H-pyrido[3,4-b]indol-2-yl)-2-methylpropanoic acid] | 1 |
| C[C@@H]1Cc2c([nH]c3ccccc23)[C@@H](c2c(F)cc(OC3CN(CCCF)C3)cc2F)N1C[C@H](C)C(=O)O [Example 349, (S)-3-((1R,3R)-1-(2,6-difluoro-4-((1-(3-fluoropropyl)azetidin-3-yl)oxy)phenyl)-3-methyl-1,3,4,9-tetrahydro-2H-pyrido[3,4-b]indol-2-yl)-2-methylpropanoic acid] | 2.03 |
| CC(CN1C(C)Cc2c([nH]c3ccccc23)C1c1c(F)cc(OC2CN(CCCF)C2)cc1F)C(=O)O (stereo not shown) [Example 351, 3-[1-[2,6-difluoro-4-[1-(3-fluoropropyl)azetidin-3-yl]oxy-phenyl]-3-methyl-1,3,4,9-tetrahydropyrido[3,4-b]indol-2-yl]-2-methyl-propanoic acid] | 33 |
| C[C@@H]1Cc2c([nH]c3ccccc23)[C@@H](c2c(F)cc(NCCN3CC(CF)C3)cc2F)N1C[C@@](C)(F)CO [Example 352, (R)-3-((1R,3R)-1-(2,6-difluoro-4-((2-(3-(fluoromethyl)azetidin-1-yl)ethyl)amino)phenyl)-3-methyl-1,3,4,9-tetrahydro-2H-pyrido[3,4-b]indol-2-yl)-2-fluoro-2-methylpropan-1-ol] | 0.685 |
| C[C@@H]1Cc2c([nH]c3ccccc23)[C@@H](c2c(F)cc(NCCN3CC(CF)C3)cc2F)N1C[C@](C)(F)CO [Example 353, (S)-3-((1R,3R)-1-(2,6-difluoro-4-((2-(3-(fluoromethyl)azetidin-1-yl)ethyl)amino)phenyl)-3-methyl-1,3,4,9-tetrahydro-2H-pyrido[3,4-b]indol-2-yl)-2-fluoro-2-methylpropan-1-ol] | 0.033 |
| C[C@H](CN1[C@H](c2c(F)cc(NC3CN(CCCF)C3)cc2F)c2[nH]c3ccccc3c2C[C@H]1C)C(=O)O [Example 354, (2R)-3-[(1R,3R)-1-[2,6-difluoro-4-[[1-(3-fluoropropyl)azetidin-3-yl]amino]phenyl]-3-methyl-1,3,4,9-tetrahydropyrido[3,4-b]indol-2-yl]-2-methyl-propanoic acid] | 1 |
| C[C@H]1Cc2c([nH]c3ccc(F)cc23)[C@H](c2c(F)cc(OCCN3CC(CF)C3)cc2F)N1CC(F)(F)F [Example 355, (1S,3S)-1-(2,6-difluoro-4-(2-(3-(fluoromethyl)azetidin-1-yl)ethoxy)phenyl)-6-fluoro-3-methyl-2-(2,2,2-trifluoroethyl)-2,3,4,9-tetrahydro-1H-pyrido[3,4-b]indole] | 29.2 |
| C[C@@H]1Cc2c([nH]c3ccc(F)cc23)[C@@H](c2c(F)cc(OCCN3CC(CF)C3)cc2F)N1CC(F)(F)F [Example 356, (1R,3R)-1-(2,6-difluoro-4-(2-(3-(fluoromethyl)azetidin-1-yl)ethoxy)phenyl)-6-fluoro-3-methyl-2-(2,2,2-trifluoroethyl)-2,3,4,9-tetrahydro-1H-pyrido[3,4-b]indole] | 0.509 |
| C[C@H]1Cc2c([nH]c3ccc(F)cc23)[C@H](c2c(F)cc(OC3CN(CCCF)C3)cc2F)N1CC(F)(F)F [Example 357, (1S,3S)-1-(2,6-difluoro-4-((1-(3-fluoropropyl)azetidin-3-yl)oxy)phenyl)-6-fluoro-3-methyl-2-(2,2,2-trifluoroethyl)-2,3,4,9-tetrahydro-1H-pyrido[3,4-b]indole] | 26.1 |
| C[C@@H]1Cc2c([nH]c3ccc(F)cc23)[C@@H](c2c(F)cc(OC3CN(CCCF)C3)cc2F)N1CC(F)(F)F [Example 358, (1R,3R)-1-(2,6-difluoro-4-((1-(3-fluoropropyl)azetidin-3-yl)oxy)phenyl)-6-fluoro-3-methyl-2-(2,2,2-trifluoroethyl)-2,3,4,9-tetrahydro-1H-pyrido[3,4-b]indole] | 0.417 |
| C[C@@H]1Cc2c([nH]c3ccc(F)cc23)[C@@H](c2c(F)cc(OCCN3CC(CF)C3)cc2F)N1CC(F)(F)CO [Example 359, 3-((1R,3R)-1-(2,6-difluoro-4-(2-(3-(fluoromethyl)azetidin-1-yl)ethoxy)phenyl)-6-fluoro-3-methyl-1,3,4,9-tetrahydro-2H-pyrido[3,4-b]indol-2-yl)-2,2-difluoropropan-1-ol] | 0.552 |
| C[C@H]1Cc2c([nH]c3ccc(F)cc23)[C@H](c2c(F)cc(OCCN3CC(CF)C3)cc2F)N1CC(F)(F)CO [Example 360, 3-((1S,3S)-1-(2,6-difluoro-4-(2-(3-(fluoromethyl)azetidin-1-yl)ethoxy)phenyl)-6-fluoro-3-methyl-1,3,4,9-tetrahydro-2H-pyrido[3,4-b]indol-2-yl)-2,2-difluoropropan-1-ol] | 9 |
| C[C@@H]1Cc2c([nH]c3ccccc23)[C@@H](c2c(F)cc(OCCN3CC(CF)C3)cc2F)N1CCC(F)(F)F [Example 361, (1R,3R)-1-[2,6-difluoro-4-[2-[3-(fluoromethyl)azetidin-1-yl]ethoxy]phenyl]-3-methyl-2-(3,3,3-trifluoropropyl)-1,3,4,9-tetrahydropyrido[3,4-b]indole] | 3 |
| C[C@@H]1Cc2c([nH]c3ccccc23)[C@H](c2c(F)cc(OCCN3CC(CF)C3)cc2F)N1CCC(F)(F)F [Example 362, (1S,3R)-1-[2,6-difluoro-4-[2-[3-(fluoromethyl)azetidin-1-yl]ethoxy]phenyl]-3-methyl-2-(3,3,3-trifluoropropyl)-1,3,4,9-tetrahydropyrido[3,4-b]indole] | > 100 |
| C[C@@H]1Cc2c([nH]c3ccc(F)cc23)[C@@H](c2c(F)cc(OC3CN(CCCF)C3)cc2F)N1CC(F)(F)CO [Example 363, 3-((1R,3R)-1-(2,6-difluoro-4-((1-(3-fluoropropyl)azetidin-3-yl)oxy)phenyl)-6-fluoro-3-methyl-1,3,4,9-tetrahydro-2H-pyrido[3,4-b]indol-2-yl)-2,2-difluoropropan-1-ol] | 0.166 |
| C[C@H]1Cc2c([nH]c3ccc(F)cc23)[C@H](c2c(F)cc(OC3CN(CCCF)C3)cc2F)N1CC(F)(F)CO [Example 364, 3-((1S,3S)-1-(2,6-difluoro-4-((1-(3-fluoropropyl)azetidin-3-yl)oxy)phenyl)-6-fluoro-3-methyl-1,3,4,9-tetrahydro-2H-pyrido[3,4-b]indol-2-yl)-2,2-difluoropropan-1-ol] | 9 |
| C[C@@H]1Cc2c([nH]c3ccccc23)[C@@H](c2c(F)cc(NC3CN(CCCF)C3)cc2F)N1C[C@H](C)C(=O)O [Example 367, (2S)-3-[(1R,3R)-1-[2,6-difluoro-4-[[1-(3-fluoropropyl)azetidin-3-yl]amino]phenyl]-3-methyl-1,3,4,9-tetrahydropyrido[3,4-b]indol-2-yl]-2-methyl-propanoic acid] | 8 |
| C[C@@H]1Cc2c([nH]c3ccc(F)cc23)[C@@H](c2c(F)cc(OC3CN(CCCF)C3)cc2F)N1C[C@](C)(F)CO [Example 368, 3-(1-{2,6-Difluoro-4-[1-(3-fluoro-propyl)-azetidin-3-yloxy]-phenyl}-6-fluoro-3-methyl-1,3,4,9-tetrahydro-beta-carbolin-2-yl)-2-fluoro-2-methyl-propan-1-ol] | 0.546 |
| C[C@H]1Cc2c([nH]c3ccc(F)cc23)[C@H](c2c(F)cc(OC3CN(CCCF)C3)cc2F)N1C[C@@](C)(F)CO [Example 369, 3-((1S,3S)-1-(2,6-difluoro-4-((1-(3-fluoropropyl)azetidin-3-yl)oxy)phenyl)-6-fluoro-3-methyl-1,3,4,9-tetrahydro-2H-pyrido[3,4-b]indol-2-yl)-2-fluoro-2-methylpropan-1-ol] | 24 |
